Measured values from PubChem BioAssay (NCI).
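Five compound concentrations were applied to cells in 96-well plates for 48 hours; endpoints were derived by simple linear interpolation of the resulting dose-response curve. The concentration for full growth arrest is given as TGI.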

Columns and labels:
Assay in all cases: inhibition of tumour cell growth, NCI panel, 48 h
786-0 renal = tested on: 786-0 renal
A498 renal = tested on: A498 renal
A549 NSCLC = tested on: A549 NSCLC
ACHN renal = tested on: ACHN renal
BT-549 breast = tested on: BT-549 breast
CAKI-1 renal = tested on: CAKI-1 renal
CCRF-CEM leukemia = tested on: CCRF-CEM leukemia
COLO 205 colon = tested on: COLO 205 colon
DU-145 prostate = tested on: DU-145 prostate
EKVX NSCLC = tested on: EKVX NSCLC
HCT-15 colon = tested on: HCT-15 colon
HL-60(TB) leukemia = tested on: HL-60(TB) leukemia
HOP-62 NSCLC = tested on: HOP-62 NSCLC
HOP-92 NSCLC = tested on: HOP-92 NSCLC
HS 578T breast = tested on: HS 578T breast
HT29 colon = tested on: HT29 colon
IGROV1 ovarian = tested on: IGROV1 ovarian
K-562 leukemia = tested on: K-562 leukemia
KM12 colon = tested on: KM12 colon
M14 melanoma = tested on: M14 melanoma
MCF7 breast = tested on: MCF7 breast
MDA-MB-231 breast = tested on: MDA-MB-231 breast
MDA-MB-435 = tested on: MDA-MB-435
MDA-N = tested on: MDA-N
MOLT-4 leukemia = tested on: MOLT-4 leukemia
NCI-H226 lung = tested on: NCI-H226 lung
NCI-H460 lung = tested on: NCI-H460 lung
NCI-H522 lung = tested on: NCI-H522 lung
NCI/ADR-RES ovarian = tested on: NCI/ADR-RES ovarian
OVCAR-4 ovarian = tested on: OVCAR-4 ovarian
OVCAR-5 ovarian = tested on: OVCAR-5 ovarian
OVCAR-8 ovarian = tested on: OVCAR-8 ovarian
PC-3 prostate = tested on: PC-3 prostate
RPMI-8226 leukemia = tested on: RPMI-8226 leukemia
RXF 393 renal = tested on: RXF 393 renal
SF-268 CNS = tested on: SF-268 CNS
SF-295 CNS = tested on: SF-295 CNS
SF-539 CNS = tested on: SF-539 CNS
SK-MEL-2 melanoma = tested on: SK-MEL-2 melanoma
SK-MEL-28 melanoma = tested on: SK-MEL-28 melanoma
SK-MEL-5 melanoma = tested on: SK-MEL-5 melanoma
SK-OV-3 ovarian = tested on: SK-OV-3 ovarian
SN12C renal = tested on: SN12C renal
SNB-19 CNS = tested on: SNB-19 CNS
SNB-75 CNS = tested on: SNB-75 CNS
SR leukemia = tested on: SR leukemia
SW-620 colon = tested on: SW-620 colon
T-47D breast = tested on: T-47D breast
TK-10 renal = tested on: TK-10 renal
U251 CNS = tested on: U251 CNS
UACC-257 melanoma = tested on: UACC-257 melanoma
UACC-62 melanoma = tested on: UACC-62 melanoma
UO-31 renal = tested on: UO-31 renal
HCT-116 colon = tested on: HCT-116 colon
LOX IMVI melanoma = tested on: LOX IMVI melanoma
MALME-3M melanoma = tested on: MALME-3M melanoma
NCI-H23 lung = tested on: NCI-H23 lung
OVCAR-3 ovarian = tested on: OVCAR-3 ovarian

Q: How did the TGI (786-0 renal) turn out when COC(=O)C12Oc3ccc(-c4ccc5c(c4O)C(O)=C4C(=O)CC(C)C(O)C4(C(=O)OC)O5)c(O)c3C(O)=C1C(=O)CC(C)C2O (configuration not stated) was run?
A: > 32.2 µM

Q: What about the TGI (A498 renal) of the same compound?
A: 1.81 µM

Q: And the TGI (A549 NSCLC)?
A: > 100 µM

Q: And the TGI (ACHN renal)?
A: > 32.1 µM

Q: And the TGI (BT-549 breast)?
A: 8.77 µM

Q: What about the TGI (CAKI-1 renal) of the same compound?
A: 4.54 µM

Q: What about the TGI (CCRF-CEM leukemia) of the same compound?
A: 0.0848 µM

Q: What about the TGI (COLO 205 colon) of the same compound?
A: 0.195 µM

Q: What about the TGI (DU-145 prostate) of the same compound?
A: > 66 µM

Q: And the TGI (EKVX NSCLC)?
A: 1.49 µM

Q: What about the TGI (HCT-15 colon) of the same compound?
A: > 100 µM

Q: And the TGI (HL-60(TB) leukemia)?
A: 0.319 µM

Q: What about the TGI (HOP-62 NSCLC) of the same compound?
A: 12.6 µM

Q: And the TGI (HOP-92 NSCLC)?
A: > 22.7 µM

Q: What about the TGI (HS 578T breast) of the same compound?
A: 3.86 µM

Q: What about the TGI (HT29 colon) of the same compound?
A: 0.479 µM

Q: And the TGI (IGROV1 ovarian)?
A: > 100 µM

Q: What about the TGI (K-562 leukemia) of the same compound?
A: > 100 µM

Q: What about the TGI (KM12 colon) of the same compound?
A: > 100 µM

Q: What about the TGI (M14 melanoma) of the same compound?
A: 0.89 µM

Q: And the TGI (MCF7 breast)?
A: > 100 µM

Q: And the TGI (MDA-MB-231 breast)?
A: 6.8 µM

Q: And the TGI (MDA-MB-435)?
A: 1.96 µM

Q: What about the TGI (MDA-N) of the same compound?
A: > 100 µM

Q: And the TGI (MOLT-4 leukemia)?
A: 2.9 µM

Q: What about the TGI (NCI-H226 lung) of the same compound?
A: 4.36 µM

Q: And the TGI (NCI-H460 lung)?
A: > 100 µM

Q: What about the TGI (NCI-H522 lung) of the same compound?
A: 0.309 µM

Q: What about the TGI (NCI/ADR-RES ovarian) of the same compound?
A: > 100 µM

Q: What about the TGI (OVCAR-4 ovarian) of the same compound?
A: > 100 µM

Q: And the TGI (OVCAR-5 ovarian)?
A: 2.26 µM

Q: What about the TGI (OVCAR-8 ovarian) of the same compound?
A: > 100 µM

Q: What about the TGI (PC-3 prostate) of the same compound?
A: 1.43 µM

Q: And the TGI (RPMI-8226 leukemia)?
A: 0.31 µM

Q: And the TGI (RXF 393 renal)?
A: 0.935 µM

Q: What about the TGI (SF-268 CNS) of the same compound?
A: 1.84 µM

Q: And the TGI (SF-295 CNS)?
A: 1.84 µM

Q: And the TGI (SF-539 CNS)?
A: 1.35 µM

Q: What about the TGI (SK-MEL-2 melanoma) of the same compound?
A: 1.02 µM

Q: What about the TGI (SK-MEL-28 melanoma) of the same compound?
A: 0.741 µM

Q: And the TGI (SK-MEL-5 melanoma)?
A: 0.147 µM

Q: And the TGI (SK-OV-3 ovarian)?
A: > 82.1 µM

Q: And the TGI (SN12C renal)?
A: > 100 µM

Q: What about the TGI (SNB-19 CNS) of the same compound?
A: > 100 µM

Q: What about the TGI (SNB-75 CNS) of the same compound?
A: 2.92 µM

Q: What about the TGI (SR leukemia) of the same compound?
A: 0.224 µM

Q: And the TGI (SW-620 colon)?
A: > 100 µM

Q: What about the TGI (T-47D breast) of the same compound?
A: > 29.1 µM

Q: What about the TGI (TK-10 renal) of the same compound?
A: 4.46 µM

Q: What about the TGI (U251 CNS) of the same compound?
A: 3.05 µM

Q: What about the TGI (UACC-257 melanoma) of the same compound?
A: 1.34 µM

Q: And the TGI (UACC-62 melanoma)?
A: 1.37 µM

Q: What about the TGI (UO-31 renal) of the same compound?
A: 0.858 µM

Q: Which results are given for O=S(=O)(/N=C(\NO)Nc1ccc(Cl)cc1)c1cc2ccccc2s1?
A: TGI (786-0 renal): 32.3 µM; TGI (A549 NSCLC): 38.1 µM; TGI (ACHN renal): 30.5 µM; TGI (BT-549 breast): 31.6 µM; TGI (CAKI-1 renal): 34.7 µM; TGI (CCRF-CEM leukemia): 87.5 µM; TGI (COLO 205 colon): 29.6 µM; TGI (DU-145 prostate): 49.2 µM; TGI (EKVX NSCLC): 26 µM; TGI (HCT-116 colon): 30.2 µM; TGI (HCT-15 colon): 36 µM; TGI (HL-60(TB) leukemia): 45.3 µM; TGI (HOP-62 NSCLC): 34.8 µM; TGI (HOP-92 NSCLC): 38.8 µM; TGI (HS 578T breast): 37.5 µM; TGI (HT29 colon): 35 µM; TGI (IGROV1 ovarian): 28.7 µM; TGI (K-562 leukemia): > 100 µM; TGI (KM12 colon): 57.2 µM; TGI (LOX IMVI melanoma): 33.5 µM; TGI (M14 melanoma): 33.3 µM; TGI (MALME-3M melanoma): 29.6 µM; TGI (MDA-MB-231 breast): 34.8 µM; TGI (MDA-MB-435): 36.9 µM; TGI (MDA-N): 36.6 µM; TGI (MOLT-4 leukemia): 77.8 µM; TGI (NCI-H226 lung): 33.2 µM; TGI (NCI-H23 lung): 30.5 µM; TGI (NCI-H460 lung): > 100 µM; TGI (NCI-H522 lung): 27.2 µM; TGI (NCI/ADR-RES ovarian): 38.7 µM; TGI (OVCAR-3 ovarian): 32.4 µM; TGI (OVCAR-4 ovarian): 37.9 µM; TGI (OVCAR-5 ovarian): 29.5 µM; TGI (OVCAR-8 ovarian): 30.7 µM; TGI (PC-3 prostate): 27.7 µM; TGI (RXF 393 renal): 36 µM; TGI (SF-268 CNS): 29.2 µM; TGI (SF-295 CNS): 41 µM; TGI (SF-539 CNS): 40.2 µM; TGI (SK-MEL-2 melanoma): 30.4 µM; TGI (SK-MEL-28 melanoma): 39.6 µM; TGI (SK-MEL-5 melanoma): 30.1 µM; TGI (SK-OV-3 ovarian): 34.7 µM; TGI (SN12C renal): 33 µM; TGI (SNB-19 CNS): 31.2 µM; TGI (SNB-75 CNS): 29.8 µM; TGI (SW-620 colon): 82 µM; TGI (T-47D breast): 84.2 µM; TGI (TK-10 renal): 41.1 µM; TGI (U251 CNS): 29.1 µM; TGI (UACC-257 melanoma): 49.9 µM; TGI (UACC-62 melanoma): 29.3 µM; TGI (UO-31 renal): 48.7 µM
